Results taken from patent US9433571B2, “Irritation mitigating polymers and uses therefor” (Lubrizol Advanced Materials, Inc., priority 2012, dated 2016).
Like-named read-outs stand apart in the source and are kept apart here.

Assays:
[1] = tested on: eye; conditions: cited from earlier work
[2] = tested on: Epiderm™ Human Tissue Model (EPI-200); assay: MTT tissue viability assay (MTT ET-50 protocol) on EpiDerm skin cultures; conditions: for Viability (%): relative to H2O negative control
Method: Mitigation of skin irritancy induced by sodium dodecyl sulfate (SDS) surfactant dosed with the polymer of Example 11 is assessed in the Epiderm™ Human Tissue Model (EPI-200) bioassay conducted by MatTek Corporation, Ashland, Mass. The MatTek bioassay utilizes human derived epidermal keratinocytes (NHEK) which have been cultured to form a multilayered, highly differentiated model of the human epidermis.
The MTT tissue viability assay measures the NAD(P)H dependent microsomal enzyme reduction of MTT (and to a lesser extent, the succinate dehydrogenase reduction of MTT) after exposure to a treated skin culture test sample for various exposure times. The duration of exposure resulting in a 50% decrease in MTT conversion in test formulation treated EpiDerm™ cultures, relative to control cultures, is determined (ET-50).
Skin tissue culture inserts (Cat. No. EPI-200) are pre-incubated in the wells of 6-well plates containing 0.9 ml of MatTek assay medium (Cat. No. EPI-100-ASY) for 1 hr. at 37° C. in a humidified atmosphere of 5% CO2 in air. The 6-well plates containing the tissue culture inserts are removed from the incubator and the assay media is aspirated from the wells and replaced by an additional aliquot of 0.9 ml of pre-warmed (37° C.) assay media. For each exposure time wells are then dosed (2 repetitions) with 100 μl of the test formulations set forth in Table 10 (3 tissue culture wells are dosed with 100 μl ultra-pure water as a negative control for each of the test candidates). In addition, 100 μl of a positive control formulation (1% Triton X-100 in ultrapure water) is dosed into tissue culture wells (3 repetitions for each exposure time), as well as 3 repetitions of ultrapure water as a negative control. The exposure times of the test formulations, negative control and positive control are set forth below.
MTT assay plates are prepped by preparing a 24-well plate by adding 300 μl of MTT reagent solution to an appropriate number of wells to accommodate the test. The MTT reagent is utilized at a concentration of 1 mg/ml of MTT diluted in Dulbecco's Modified Eagle Medium (DMEM). The MTT/DMEM solution is centrifuged and decanted to remove any precipitate before use.
After exposure times of 60 (1 hr.), 120 (2 hrs.) and 210 (3.5 hrs.) minutes to the test solutions, the tissue cultures are removed from the incubator and thoroughly rinsed (2 times) with Dulbecco's phosphate buffered saline (DPBS) to remove the test material. The negative control is exposed for 4 hours and the positive control is exposed for time periods of 4, 6, 8, and 10 hours. Any remaining rinse media is decanted from the top of the tissue cultures. Each tissue culture insert is transferred to an appropriately labeled well of the 24-well plate containing the MTT reagent solution and placed back in the incubator. After 30 minutes reaction with the MTT reagent, the tissue cultures are removed from the incubator. Each tissue culture insert is removed from its well and the bottom is gently blotted with a lab tissue. The inserts are immersed into a labeled 24-well extraction plate containing 2 ml of isopropanol extractant solution. The 24-well extraction plate is covered with aluminum foil (to protect the samples from light) and placed into a sealable plastic bag to minimize evaporation of the extractant solution. The sealed 24-well extraction plate is set on an orbital shaker and gently shaken for 2 hours at ambient room temperature (approximately 20° C.). […]

sodium laureth-12 sulfate
eye irritation [1]: almost completely non-irritating

CCCCCCCCCCCCOS(=O)(=O)[O-].[Na+] [Neat Surfactant, sodium dodecyl sulfate]
Viability (%) ([2]; exposure time 1 hr): 92.3%
Viability (%) ([2]; exposure time 2 hr): 32.3%
Viability (%) ([2]; exposure time 3.5 hr): 16.6%
ET-50 (exposure time which reduces tissue viability to 50%) ([2]; interpolated between exposure times that bracket 50% viability, 100 μl formulation per tissue): 1.63 h

Triton X-100
ET-50 (exposure time which reduces tissue viability to 50%) [2]: 5.93 h

CCCCCCCCCCCCOS(=O)(=O)[O-].[Na+] [sodium lauryl sulfate]
eye irritation ([1]; literature statement (Schoenberg, 1979)): significant eye irritation
